US20110224256A1, “T[…] THE TREATMENT OF PSYCHIATRIC DISORDERS” (priority 2008, published 2011)
“Also recorded” adds a separate entry of the source.

Experiments:
[1] = system: mature and immature animals; details: cited from earlier work
Sprague-Dawley male rats [2] = assay: Place conditioning to 10 mg/kg cocaine at P60 after juvenile drug exposure; assay type: in vivo; details: for place conditioning to cocaine-associated environment (pre- vs. post-conditioning): tested at P60, 10 mg/kg cocaine
Procedure: Juvenile Sprague-Dawley male rats were treated with MPH (2 mg/kg, i.p. twice daily), ±7-OHDPAT (0.3 mg/kg, i.p. twice daily), Naf (0.05, 0.5 and 5 mg/kg; i.p. twice daily) or VEH (i.p. twice daily) between the ages of P20 and P35 (Andersen et al., Nat. Neurosci., 5:13-14 (2002)). The MPH dose was selected on the basis of previous studies (see Andersen et al., Nat. Neurosci., 5:13-14 (2002); Bolanos et al., Biol. Psychiatry, 54:1317-1329 (2003); and Mague et al., Biol. Psychiatry, 57:120-125 (2005)), unpublished observations that we find similar behavioral effects if MPH is given i.p. or orally at this dose, and evidence that it approximates a clinically relevant dose in humans based on plasma levels (see Wargin et al., J. Pharmacol. Exp. Ther., 226:382-386 (1983); and Kuczenski, R. & Segal, D. S. J. Neurosci., 22:7264-7271 (2002)). Clinically therapeutic doses of MPH yield plasma levels between 8 and 40 ng/mL (Swanson et al., Behay. Brain Res., 130:73-78 (2002); Teicher et al., Ann. N. Y. Acad. Sci., 1071:313-323 (2006)), with 0.5 mg/kg i.p., achieving plasma levels of 36 ng/mL within 5 min in rats (Berridge et al., Biol. Psychiatry, 60:1111-1120 (2006)). Doses for juvenile exposure to ±7-OHDPAT are based on Neisewander et al., Neuropsychopharmacology, 29:1479-1487 (2004), and cortical microinjections of 10 µg/side were derived from Boulay et al. Prog. Neuropsychopharmacol. Biol. Psychiatry, 24:39-49 (2000). Naf doses below 1 mg/kg have negligible D2 receptor occupancy (Sautel et al., J. Pharmacol. Exp. Ther., 275:1239-1246 (1995)) and are behaviorally effective (Richtand et al., Brain Res., 867:239-242 (2000)). Subjects were weighed daily at 09.00 h and injected with their assigned drug; the second injection was administered 4 h later at 13.00 h. This regimen is designed to match the twice-daily dosing used by children, taking into account the higher metabolic rates of rats (Wargin et al., J. Pharmacol. Exp. Ther., 226:382-386 (1983)). After the second drug administration on P35, the rats received no further treatments until behavioral testing at P60.
Rats treated between P20 and P35 with either Naf (0, 0.05, 0.5 or 5.0 mg/kg; n=7-9), ±7-OHDPAT (0.3 mg/kg; n=9), MPH (2 mg/kg; n=9), or a combination of 2 mg/kg MPH and 0.05 mg/kg Naf (MPH/Naf; n=8) were tested at P60 for place conditioning to 10 mg/kg cocaine. According to standard laboratory methods (Andersen et al., Nat. Neurosci., 5:13-14 (2002); Carlezon, Methods Mol. Med., 84:243-249 (2003)), unbiased place conditioning chambers consisted of two large (24×18×33) side compartments separated by a small (12×18×33 cm) middle compartment. Screening was conducted for 30 min on Day 1. Rats were placed in the middle compartment and allowed to freely explore the apparatus. […] Two days of conditioning (with two sessions per day) occurred on Days 2 and 3 for 60 min (Andersen et al., Nat. Neurosci., 5:13-14 (2002); Carlezon, Methods Mol. Med., 84:243-249 (2003)). During the conditioning sessions, rats received a 1 mL/kg i.p. injection of VEH in the morning (09.00 h) and confined to one side. The rats were then returned to the home cage. Four hours later, rats received 10 mg/kg cocaine and confined to the other side. Sides differed in floor texture, wall colors and lighting, and assignments were counterbalanced. On Day 4, rats were permitted to freely explore the entire apparatus for 30 min in a drug-free state.

Sprague-Dawley male rats [3] = assay: as above; assay type: in vivo; details: 10 µg/side into MPFCx during conditioning
Sprague-Dawley male rats [4] = assay: Locomotor activity at 60 days old after juvenile ±7-OHDPAT exposure; assay type: in vivo; details: juvenile ±7-OHDPAT 0.3 mg/kg P20-P35, vs VEH
Procedure: FIG. 6. Locomotor activity in response to a 10 mg/kg challenge with cocaine on the second day of cocaine conditioning in VEH- and ±7-OHDPAT-treated subjects (n=7-8 animals per group). *P<0.05 comparing the 10 mg/kg cocaine groups.
Juvenile Sprague-Dawley male rats were treated with MPH (2 mg/kg, i.p. twice daily), ±7-OHDPAT (0.3 mg/kg, i.p. twice daily), Naf (0.05, 0.5 and 5 mg/kg; i.p. twice daily) or VEH (i.p. twice daily) between the ages of P20 and P35 (Andersen et al., Nat. Neurosci., 5:13-14 (2002)). […]
To further investigate the functional role of the D3 receptor in juvenile psychostimulant treatment, animals were pre-pubertally treated with the D3-preferring agonist ±7-OHDPAT, the D3 antagonist Naf or a MPH/Naf combination. […] Next, juvenile manipulations of the D3 receptor on place conditioning were assessed and compared with each other. […]

D2 receptor = details: Naf doses below 1 mg/kg; cited from earlier work

| Structure (SMILES) | locomotor activity [1] | place conditioning to 10 mg/kg cocaine associated environment (pre- vs. post-conditioning) (Sprague-Dawley male rats [2]; juvenile exposure P20-P35: MPH 2 mg/kg, ±7-OHDPAT 0.3 mg/kg, or MPH 2 mg/kg + Naf 0.05 mg/kg, tested at P60) | place conditioning to cocaine after ±7-OHDPAT microinjection into the MPFCx (Sprague-Dawley male rats [3]; MPH-exposed subjects) | place conditioning to cocaine after ±7-OHDPAT microinjection into the MPFCx (Sprague-Dawley male rats [3]; MPH-exposed subjects, listed as ±7 OHDPAT) | place conditioning to cocaine after ±7-OHDPAT microinjection into the MPFCx (Sprague-Dawley male rats [3]; VEH-exposed subjects) | place conditioning to cocaine after ±7-OHDPAT microinjection into the MPFCx (Sprague-Dawley male rats [3]; VEH-exposed subjects, listed as ±7 OHDPAT) | baseline locomotor activity (Sprague-Dawley male rats [4]; 60 days old, P>0.9) | locomotor response to 10 mg/kg cocaine challenge (Sprague-Dawley male rats [4]; second day of cocaine conditioning, P<0.05) | place conditioning to cocaine-associated environment (pre- vs. post-conditioning) (Sprague-Dawley male rats [2]; juvenile Naf 0.05 mg/kg i.p. twice daily P20-P35) | place conditioning to cocaine-associated environment (pre- vs. post-conditioning) (Sprague-Dawley male rats [2]; juvenile Naf 0.5 mg/kg i.p. twice daily P20-P35) | place conditioning to cocaine-associated environment (pre- vs. post-conditioning) (Sprague-Dawley male rats [2]; juvenile Naf 5.0 mg/kg i.p. twice daily P20-P35) | D2 receptor occupancy (D2 receptor) |
| --- | --- | --- | --- | --- | --- | --- | --- | --- | --- | --- | --- | --- |
| CCCN(CCC)C1CCc2ccc(O)cc2C1 (racemic) [±7-OHDPAT, ±7-hydroxy-N,N-di-n-propyl-2-aminotetralin] | inhibit locomotor activity | Place aversion; also recorded: aversion to the cocaine-associated environment | reversing the aversion to cocaine; also recorded: produced a place preference to cocaine | significant preference for cocaine-associated environments | no greater effect | significant preference for cocaine-associated environments | did not differ from VEH control animals | significantly reduced | – | – | – | – |
| CCCCN1CCCC1CNC(=O)c1cc(C#N)c2ccccc2c1OC (stereo not shown) [Naf, Nafadotride] | – | – | – | – | – | – | – | – | significant preference | significant preference | did not form such a preference | negligible |
| CCCN1CCO[C@@H]2c3cc(O)ccc3OC[C@H]21 [PD 128907] | inhibit locomotor activity | – | – | – | – | – | – | – | – | – | – | – |
